Entries after “also recorded” stand apart in the source; their conditions may differ.
What was measured:
[1] = test system: chronic CS-exposed AKR/J mice; assay: Measurement of mouse lung mechanics; format: in vivo
Experimental: (§1) Six- to eight-week-old AKR/J male mice were divided into 3 groups. The control group was kept in a filtered air environment, and the experimental groups were subjected to CS or CS plus losartan in drinking water. CS exposure was carried out (2 hours per day, 5 days per week) by burning 2R4F reference cigarettes (University of Kentucky, […], Ky., USA) using a smoking machine (Model TE-10; Teague Enterprises) for 6 to 7 weeks. The average concentration of total suspended particulates and carbon monoxide was 90 mg/m and 350 ppm, respectively, which was monitored on a routine basis.
The AT1 selective antagonist losartan (Merck Co.) was diluted into drinking water at concentrations of 3 mg/kg (low dose) and 30 mg/kg (high dose). Panselective TGF-β-neutralizing antibody (R&D Systems) was administered by intraperitoneal injection according to published protocol (70). Isotype-matched control antibody (R&D Systems) was administered to control mice as described above. […]
After being connected they were paralyzed with Succinylcholine (75 mg/kg) and ventilated with a tidal volume of 0.2 mL of 100% oxygen at a rate of 150 breathes/min, with a positive end expiratory pressure (PEEP) of 3 cm H2O. […] One minute later Rrs and Ers were measured (74). […] The expression levels of target genes were determined in triplicate from the standard curve and normalized to Gapdh mRNA level.

AT1 receptor = target: T1, AT1 receptor (Mus musculus, UniProt P29754); assay: Immunohistochemistry for the AT1 receptor in murine lungs; format: in vivo, mice; settings: 2 months CS
T1 construct: from tissue; host or cells: fixed lung sections of AKR/J mice
T1 sequence (P29754 1-359): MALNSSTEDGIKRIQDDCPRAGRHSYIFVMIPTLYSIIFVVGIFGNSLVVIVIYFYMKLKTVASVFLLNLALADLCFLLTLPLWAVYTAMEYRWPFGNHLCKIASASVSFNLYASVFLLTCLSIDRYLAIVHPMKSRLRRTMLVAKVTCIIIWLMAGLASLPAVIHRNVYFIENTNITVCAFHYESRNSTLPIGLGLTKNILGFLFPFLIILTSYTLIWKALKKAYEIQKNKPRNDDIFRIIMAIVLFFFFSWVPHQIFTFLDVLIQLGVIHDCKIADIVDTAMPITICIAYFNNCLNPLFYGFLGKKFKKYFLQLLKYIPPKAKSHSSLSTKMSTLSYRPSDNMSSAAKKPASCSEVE
Experimental: as §1
(§2) The AT1 selective antagonist losartan (Merck Co.) was diluted into drinking water at concentrations of 3 mg/kg (low dose) and 30 mg/kg (high dose). Panselective TGF-β-neutralizing antibody (R&D Systems) was administered by intraperitoneal injection according to published protocol (70). Isotype-matched control antibody (R&D Systems) was administered to control mice as described above.

CS-exposed lungs = assay: CS-induced injury measures by immunohistochemistry: oxidative stress, inflammatory cells, proliferation; format: in vivo, mice
Experimental: as §1, §2
Tissue sections were deparaffinized and rehydrated in an ethanol series. Sections were blocked for non-specific binding with 3% normal serum from chicken and incubated with the primary antibodies for 1 hour at room temperature. For immunofluorescence, sections were then incubated with secondary antibodies at 1:200 for 30 minutes at room temperature (Molecular Probes). Sections were counterstained with 4′,6′-diamidinio-2-phenylindole (DAPI) and mounted with Vectashield hard set mounting medium (Vector Labs). Briefly, after incubation with the primary antibody overnight at 4° C., slides were washed with PBST, incubated with an appropriate biotinylated secondary antibody (Jackson ImmunoResearch Inc.), and developed by using ABC and DAB detection reagents (Vector Laboratories). […]

MMP9 = assay: Zymography of lung extracts; format: in vivo; settings: CS-exposed mice
Experimental: as §1, §2

[2] = test system: alveolar epithelial apoptosis; assay: TUNEL and active caspase-3 labeling in the airspace; format: in vivo; settings: CS-exposed mice
Experimental: as §1, §2
(§3) Tissue sections were deparaffinized and rehydrated in an ethanol series. Sections were blocked for non-specific binding with 3% normal serum from chicken and incubated with the primary antibodies for 1 hour at room temperature. For immunofluorescence, sections were then incubated with secondary antibodies at 1:200 for 30 minutes at room temperature (Molecular Probes). […]

[3] = test system: lung gene expression pathways; assay: Expression profile analysis of whole lung RNA; format: in vivo, mice; settings: 2 months CS plus losartan
Experimental: Six- to eight-week-old AKR/J male mice were divided into 3 groups. The control group was kept in a filtered air environment, and the experimental groups were subjected to CS or CS plus losartan in drinking water. CS exposure was carried out (2 hours per day, 5 days per week) by burning 2R4F reference cigarettes (University of Kentucky, […], Ky., USA) using a smoking machine (Model TE-10; Teague Enterprises) for 6 to 7 weeks. […] Panselective TGF-β-neutralizing antibody (R&D Systems) was administered by intraperitoneal injection according to published protocol (70). Isotype-matched control antibody (R&D Systems) was administered to control mice as described above. Total RNA was extracted from the designated murine lungs, six in each treatment group, using the Trizol Reagent method (Invitrogen, Carlsbad, Calif. 92008, cat. no. 15596-026). Additional purification was performed on RNAeasy columns (Qiagen, Valencia, Calif. 913555, cat. no. 74104). The quality of total RNA samples was assessed using an Agilent 2100 Bioanalyzer (Agilent Technologies, Palo Alto, Calif.). The six RNA samples from each time point were pooled into two groups comprised of three murine specimens. […] The hybridized biotinylated cRNA was detected with streptavidin-Cy3 and quantitated using Illumina's BeadStation 500GX Genetic Analysis Systems scanner. […]

[4] = test system: chronic CS-exposed AKR/J mice; assay: Morphometric analysis of airspace dimension and airway attachments in chronic CS-induced emphysema model; format: in vivo
Experimental: as §1, with “The control group was kept in a filtered air environment, and the experimental groups were subjected to CS or CS plus losartan in drinking water.” left out
[…] Panselective TGF-β-neutralizing antibody (R&D Systems) was administered by intraperitoneal injection according to published protocol (70). Isotype-matched control antibody (R&D Systems) was administered to control mice as described above.
Three to five mice of each genotype were studied at the noted ages. For histologic and morphometric analyses, mouse lungs were inflated at a pressure of 25 cm H2O and fixed with 4% PFA in low molecular weight agarose. […]
Mean linear intercept measurements were performed on H&E-stained sections taken at intervals throughout both lungs. […] Mean chord lengths and mean linear intercepts were assessed by automated morphometry with a macro-operation performed by Metamorph Imaging Software (Universal Imaging, Molecular Devices). Mean airway thickness was measured directly using microscope-captured images at ×40 magnification. […]

[5] = test system: small airways of chronic CS-exposed mice; assay: Airway histology: wall thickness, Ki67, trichrome, αSMA; format: in vivo
Experimental: Six- to eight-week-old AKR/J male mice were divided into 3 groups. The control group was kept in a filtered air environment, and the experimental groups were subjected to CS or CS plus losartan in drinking water. […] The average concentration of total suspended particulates and carbon monoxide was 90 mg/m and 350 ppm, respectively, which was monitored on a routine basis.
as §2
Mean linear intercept measurements were performed on H&E-stained sections taken at intervals throughout both lungs. Slides were coded, captured by an observer, and masked for identity for the groups. Ten to fifteen images per slide were acquired at ×20 magnification and transferred to a computer screen. Mean chord lengths and mean linear intercepts were assessed by automated morphometry with a macro-operation performed by Metamorph Imaging Software (Universal Imaging, Molecular Devices). Mean airway thickness was measured directly using microscope-captured images at ×40 magnification. Hart's staining was performed per published protocol using either van Gieson or tartrazine counterstaining (71).
Tissue sections were deparaffinized and rehydrated in an ethanol series. Sections were blocked for non-specific binding with 3% normal serum from chicken and incubated with the primary antibodies for 1 hour at room temperature. For immunofluorescence, sections were then incubated with secondary antibodies at 1:200 for 30 minutes at room temperature (Molecular Probes). Sections were counterstained with 4′,6′-diamidinio-2-phenylindole (DAPI) and mounted with Vectashield hard set mounting medium (Vector Labs). Briefly, after incubation with the primary antibody overnight at 4° C., slides were washed with PBST, incubated with an appropriate biotinylated secondary antibody (Jackson ImmunoResearch Inc.), and developed by using ABC and DAB detection reagents (Vector Laboratories). Antibodies were used at the following concentrations: Ki67 (1:50; Santa Cruz Biotechnology Inc.), nitrotyrosine (Abcam), Mac3 (BD Biosciences), CD45R (Santa Cruz Biotechnology Inc.), psmad2 (Cell Signaling Technology), TUNEL (1:25; Abcam), JNK/pJNK (Cell Signaling Technology), Akt/pAkt (Cell Signaling Technology), LAP— TGF-β1 (R&D Systems), CTGF (Abcam), Angiotensin type 1 receptor (Santa Cruz Biotechnology Inc.), and active caspase-3 (Abcam).

TGF-β signaling (psmad2) = assay: Immunohistochemical staining for psmad2, a marker of TGF-β signaling, in lungs; format: in vivo; settings: chronic CS-exposed mice
Experimental: as §1, §2, §3

active TGF-β = assay: ELISA of active TGF-β in lung lysates of CS-exposed mice; format: in vivo; settings: AKR/J and C57BL/6 mice, two weeks of CS exposure, concurrent treatment
Experimental: as §1, §2

MMP12 = assay: Western blot analysis of MMP12 expression in lung lysates; format: in vivo; settings: CS-exposed mice
Experimental: as §1, §2
(§4) Whole lung lysates were extracted in M-Per buffer from Pierce. Protein concentrations were determined using the Bio-Rad Protein Assay. Aliquots of 30-50 μg protein were boiled and then loaded onto Tris-HCL gels and transferred electrophoretically to nitrocellulose membranes. Membranes were incubated with the primary antibody for 1 hour at room temperature. Detection was performed by the Pierce West Dura ECL Detection System. […]

Akt, JNK, p38 = assay: Immunoblotting of activated and total Akt, JNK and p38 in lung lysates; format: in vivo, mice; settings: CS-exposed lungs, attenuated by CS
Experimental: as §1, §2, §4

[6] = Body weight of CS- or RA-exposed mice; format: in vivo; settings: for CS-induced weight loss: CS-exposed mice, two months treatment
Experimental: as §1, §2

elastin = assay: Elastin localization by Hart's stain; format: in vivo; settings: CS-exposed mice
Experimental: as §1, §2

Q: Which results are given for `CCCCc1nc(Cl)c(CO)n1Cc1ccc(-c2ccccc2-c2nn[nH]n2)cc1` [losartan]?
A: lung elastance [1]: normalized; lung size (total lung capacity) [1]: normalized; AT1 staining in the airspace walls (AT1 receptor): normalized; inflammatory cell infiltration (alveolar macrophage and lymphocyte numbers) (CS-exposed lungs; AKR/J mice, CS-exposed lungs): reduced inflammatory cell infiltration; oxidative stress (nitrotyrosine and 8-deoxyguanine immunostaining) (CS-exposed lungs; AKR/J mice, CS-exposed lungs): normalized oxidative stress; airspace epithelial cell proliferation reduced by CS (CS-exposed lungs; CS-exposed mice): did not normalize; MMP9 activation (MMP9): normalized; TUNEL labeling in the airspace [2]: attenuated; active caspase-3 labeling in the airspace [2]: attenuated; oxidoreductase, B cell receptor signaling, chemokine signaling, and cytokine receptor interaction pathways (induced with CS) [3]: repressed with losartan treatment; stress response and MAPK pathway genes (downregulated with CS) [3]: induced with losartan treatment; airspace dimension (mean linear intercept) ([4]; 2 months CS, concurrent treatment (losartan 0.6 or 1.2 g/l in drinking water; antibody 10 mg/kg/wk)): marked reduction in the airspace dimension; also recorded: attenuate destructive airspace enlargement; airway alveolar attachments, a measure of airspace destruction ([4]; CS-exposed): recovery with losartan treatment; airway epithelial thickening (airway mucosal thickness) ([5]; 2 months CS, small airways of similar size): normalized; airway epithelial proliferation (Ki67 staining) ([5]; CS-exposed mice): trend toward reduction; density and abundance of αSMA-producing smooth muscle cells surrounding the small airways ([5]; data not shown): not changed; peribronchiolar collagen deposition (trichrome) ([5]; mice exposed to 3 months of CS): normalized collagen deposition; TGF-β signaling (phosphorylated smad2 in alveolar and airway epithelium) (TGF-β signaling (psmad2)): normalized with losartan treatment; also recorded: inhibit chronic CS-induced TGF-β signaling in the lung; active TGF-β in lung lysates by ELISA (active TGF-β): normalized TGF-β in both strains; MMP12 expression in the lungs (MMP12): normalized; JNK and p38 activation (Akt, JNK, p38): only Akt activation was normalized; CS-induced weight loss [6]: not improved; CS-induced weight loss ([6]; listed as Losartan): does not rescue CS-induced weight loss; body weight of RA-exposed mice ([6]; room air-exposed mice): did not alter body weight; elastin fragmentation in the airspaces (elastin): improved with losartan treatment
